The record followed here is PubChem BioAssay (NCI).

SMILES strings stand for the structures. “And” between values parts separate entries of the source, which are not always exact repeats. Equal entries are not always repeated.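 In this assay, cells in 96-well plates receive the compound at five concentrations for 48 hours. Endpoints are linearly interpolated between the surrounding concentrations. GI50 = concentration required for 50% inhibition of growth. TGI is the concentration that stops growth completely.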 Where a SMILES comes first, the peptide text is derived from it. Bridges are numbered along the chain shown (N, C = ends). [ ]: non-standard residue; d: D form. The star is where a group is joined. ξ: configuration not given here. Cbz = O=C(OCc1ccccc1)*; ξD = NC(CC(=O)O)C(=O)O; Ac3c = NC1(C(=O)O)CC1; Boc = CC(C)(C)OC(=O)*; OtBu = CC(C)(C)O*

By TGI is commonly meant the concentration at which net growth stops. Higher therefore signals less potent growth arrest. As a reminder, the GI50 is the concentration giving 50% growth inhibition.

Among the test systems are DU-145 prostate; NCI-H226 lung; M14 melanoma; UACC-62 melanoma; OVCAR-8 ovarian; SF-539 CNS; RPMI-8226 leukemia; CAKI-1 renal; NCI-H522 lung; OVCAR-5 ovarian.
Holding throughout (assay): DTP human tumour cell line panel, 48 h

Turning to `COC(=O)C1(NC(=O)C(CC(=O)OC(C)(C)C)NC(=O)OC(C)(C)C)CC1` (centres undefined) (Boc-[ξD](OtBu)-[Ac3c]-OMe), the concentration for total growth inhibition (TGI) with DU-145 prostate, in the test with NCI-H226 lung, in the test on M14 melanoma, in the test on UACC-62 melanoma, with OVCAR-8 ovarian and with SF-539 CNS was more than 100 µM each time. For the same compound, the total growth inhibition concentration (TGI) in the test with RPMI-8226 leukemia, with CAKI-1 renal, with NCI-H522 lung and in the test with OVCAR-5 ovarian was more than 100 µM in each case.
For `Cc1nn(C)c2nc3ccc(Cl)cc3c(-c3ccccc3)c12`, the TGI in the test with DU-145 prostate, with NCI-H226 lung, with M14 melanoma, in the test on UACC-62 melanoma, with OVCAR-8 ovarian and in the test on SF-539 CNS was more than 100 µM in each case. Moreover, the TGI in the test on RPMI-8226 leukemia, in the test on CAKI-1 renal, in the test with NCI-H522 lung and with OVCAR-5 ovarian was more than 100 µM each time.
Consider `O=C(/C=C(\O)c1ccccc1)/C(=C/C(=O)c1ccccc1)NN=C(c1ccccc1)c1ccccc1`, for which the TGI with DU-145 prostate is more than 100 µM; in the test with NCI-H226 lung, 72.7 µM; with M14 melanoma, 72.6 µM; in the test with UACC-62 melanoma it was 36.7 µM; in the test on OVCAR-8 ovarian, more than 100 µM; with SF-539 CNS, more than 100 µM. The total growth inhibition concentration (TGI) in the test with RPMI-8226 leukemia was more than 100 µM; with CAKI-1 renal it was more than 100 µM; with NCI-H522 lung, 63 µM; in the test with OVCAR-5 ovarian, more than 100 µM.
With `CC(C)=Nn1cnc(C(=N)C#N)c1N`, the TGI in the test on DU-145 prostate, in the test with NCI-H226 lung, with M14 melanoma, in the test with UACC-62 melanoma, with OVCAR-8 ovarian and in the test with SF-539 CNS was more than 100 µM in each case. Further, the TGI in the test with RPMI-8226 leukemia, in the test on CAKI-1 renal, with NCI-H522 lung and in the test with OVCAR-5 ovarian was more than 100 µM each time.
For `CCn1c2ccc(O)c(C(=O)OC)c2c2cc3ccccc3c(O)c21`, the TGI was 40.8 µM in the test with DU-145 prostate; 83.8 µM in the test on NCI-H226 lung; 47.5 µM in the test on M14 melanoma; more than 100 µM with UACC-62 melanoma; 56.9 µM in the test on OVCAR-8 ovarian; 49.2 µM in the test with SF-539 CNS. For the same compound, the TGI in the test on RPMI-8226 leukemia stood at 33.3 µM; with CAKI-1 renal, 33.6 µM; in the test with NCI-H522 lung it was 41.2 µM; in the test on OVCAR-5 ovarian, 73.3 µM.
For the compound `O=c1[nH]cnc2sc(=S)c3c(c12)CCC3`, the TGI was more than 100 µM in the test with DU-145 prostate; 72.7 µM with NCI-H226 lung; more than 100 µM in the test with M14 melanoma; more than 100 µM in the test with UACC-62 melanoma; more than 100 µM in the test with OVCAR-8 ovarian; more than 100 µM in the test with SF-539 CNS. For the same compound, the TGI in the test with RPMI-8226 leukemia is 43 µM; with CAKI-1 renal, 49.4 µM; in the test with NCI-H522 lung, 41.8 µM; with OVCAR-5 ovarian, more than 100 µM.
In the case of `CCOC(=O)/C(C#N)=C(/NNc1ccccc1)c1ccncc1C(=O)O`, the total growth inhibition concentration (TGI) with DU-145 prostate is more than 100 µM; with NCI-H226 lung, more than 100 µM; in the test on M14 melanoma, more than 100 µM; in the test with UACC-62 melanoma, more than 100 µM; in the test on OVCAR-8 ovarian, more than 100 µM; in the test on SF-539 CNS, more than 88.3 µM. Moreover, the TGI in the test with RPMI-8226 leukemia, in the test on CAKI-1 renal, with NCI-H522 lung and with OVCAR-5 ovarian was more than 100 µM in each case.
Turning to `COC(=O)C1CCCCNC(=O)CCC(NC(=O)OCc2ccccc2)C(=O)N1` (stereo not drawn) (Cbz-Glu-Lys-OMe; lactam 1-2; configuration not given here), the TGI in the test on DU-145 prostate, in the test with NCI-H226 lung, in the test with M14 melanoma, with UACC-62 melanoma, with OVCAR-8 ovarian and in the test on SF-539 CNS was more than 100 µM each time. Besides, the TGI with RPMI-8226 leukemia, with CAKI-1 renal, with NCI-H522 lung and in the test with OVCAR-5 ovarian was more than 100 µM each time.
Consider `COC1=CC(=O)c2c(O)c3c(c(O)c2C1=O)C[C@](C)(O)C[C@@H]3O`, for which the concentration for total growth inhibition (TGI) in the test on DU-145 prostate is 16 µM; in the test with NCI-H226 lung, 45.6 µM; in the test with M14 melanoma it was 8.59 µM; in the test with UACC-62 melanoma, 4.66 µM; in the test with OVCAR-8 ovarian, 15.7 µM; with SF-539 CNS, 9.89 µM. Moreover, the TGI with RPMI-8226 leukemia is 40.2 µM; in the test on CAKI-1 renal it was 45.5 µM; with NCI-H522 lung, 12.4 µM; in the test with OVCAR-5 ovarian, 27.8 µM.
For the compound `O=C(O)c1cc(Cl)cc2c1NC1(N2)C(=O)Nc2ccccc21` (centres undefined), the TGI with DU-145 prostate, in the test on NCI-H226 lung, in the test on M14 melanoma, in the test on UACC-62 melanoma, with OVCAR-8 ovarian and with SF-539 CNS was more than 100 µM throughout. Also, the TGI in the test on RPMI-8226 leukemia, in the test with CAKI-1 renal, with NCI-H522 lung and with OVCAR-5 ovarian was more than 100 µM throughout.
Consider `COc1cc(OC)c2c(O)c(S(=O)(=O)c3ccc(C)cc3)c(=O)oc2c1`, for which the TGI with DU-145 prostate, with NCI-H226 lung, with M14 melanoma, in the test on UACC-62 melanoma, in the test on OVCAR-8 ovarian and in the test on SF-539 CNS was more than 100 µM in each case. Further, the TGI with RPMI-8226 leukemia, in the test on CAKI-1 renal, in the test with NCI-H522 lung and with OVCAR-5 ovarian was more than 100 µM throughout.
With `CSc1nc(C#N)c(N)n1C`, the TGI in the test with DU-145 prostate, with NCI-H226 lung, in the test with M14 melanoma, in the test with UACC-62 melanoma, with OVCAR-8 ovarian and with SF-539 CNS was more than 100 µM each time. Further, the concentration for total growth inhibition (TGI) in the test with RPMI-8226 leukemia, with CAKI-1 renal, with NCI-H522 lung and in the test on OVCAR-5 ovarian was more than 100 µM in each case.
In the case of `C=C(Br)CNCC(=C)Br`, the concentration for total growth inhibition (TGI) in the test with DU-145 prostate, in the test with NCI-H226 lung, in the test with M14 melanoma, in the test on UACC-62 melanoma, in the test with OVCAR-8 ovarian and in the test with SF-539 CNS was more than 100 µM in each case. Besides, the TGI in the test on RPMI-8226 leukemia, with CAKI-1 renal, in the test with NCI-H522 lung and in the test with OVCAR-5 ovarian was more than 100 µM throughout.
Regarding `O=c1[nH]c2cc3cccnc3c(Cl)c2nc1CBr`, the TGI in the test on DU-145 prostate worked out at 30.4 µM; in the test on NCI-H226 lung it was 56.1 µM; in the test on M14 melanoma, 27.8 µM; in the test with UACC-62 melanoma, 25.2 µM; in the test with OVCAR-8 ovarian, 44.4 µM; in the test with SF-539 CNS, 26.4 µM. Moreover, the TGI in the test on RPMI-8226 leukemia turned out to be 26.3 µM; with CAKI-1 renal it was 31.9 µM; in the test with NCI-H522 lung it was 28.5 µM; with OVCAR-5 ovarian, 35.9 µM.
For `COC(=O)/C(=C\c1ccco1)P(=O)(OC)OC`, the TGI with DU-145 prostate is more than 100 µM; in the test with NCI-H226 lung, more than 100 µM; in the test with M14 melanoma, more than 100 µM; with UACC-62 melanoma it was more than 100 µM; in the test with OVCAR-8 ovarian it was more than 100 µM; with SF-539 CNS, 65.9 µM. The total growth inhibition concentration (TGI) is more than 100 µM in the test with RPMI-8226 leukemia, 65 µM with CAKI-1 renal, 5.52 µM with NCI-H522 lung and 31.8 µM with OVCAR-5 ovarian.
Regarding `CC(NNC(=O)c1ccncc1)c1ccc(Cl)c(Cl)c1` (centres undefined), the concentration for total growth inhibition (TGI) in the test on DU-145 prostate, with NCI-H226 lung, with M14 melanoma, in the test on UACC-62 melanoma, in the test on OVCAR-8 ovarian and in the test with SF-539 CNS was more than 100 µM each time. In addition, the TGI with RPMI-8226 leukemia, with CAKI-1 renal, in the test on NCI-H522 lung and in the test with OVCAR-5 ovarian was more than 100 µM each time.
For `CCOC(=O)C(NC(=O)CC)(Nc1ccc(S(=O)(=O)Nc2nc(C)cc(C)n2)cc1)C(F)(F)F` (centres undefined), the TGI with DU-145 prostate, in the test with NCI-H226 lung, with M14 melanoma, in the test on UACC-62 melanoma, in the test with OVCAR-8 ovarian and with SF-539 CNS was more than 100 µM in each case. Also, the TGI in the test on RPMI-8226 leukemia, in the test on CAKI-1 renal, in the test with NCI-H522 lung and with OVCAR-5 ovarian was more than 100 µM throughout.
As to `Oc1nc(N/N=C/c2ccccc2)[nH]c1/C=C1\C=Nc2ccccc21`, the TGI with DU-145 prostate, with NCI-H226 lung, in the test with M14 melanoma, with UACC-62 melanoma, in the test on OVCAR-8 ovarian and in the test on SF-539 CNS was more than 100 µM in each case. In addition, the TGI in the test on RPMI-8226 leukemia, in the test on CAKI-1 renal, in the test on NCI-H522 lung and in the test on OVCAR-5 ovarian was more than 100 µM in each case.
With `Cc1cc(S(=O)(=O)Nc2nc3ccccc3n2-c2ccccc2)c(S)cc1Cl`, the TGI in the test with DU-145 prostate, in the test on NCI-H226 lung, in the test on M14 melanoma, with UACC-62 melanoma, with OVCAR-8 ovarian and with SF-539 CNS was more than 100 µM throughout. Also, the TGI in the test with RPMI-8226 leukemia, with CAKI-1 renal, with NCI-H522 lung and with OVCAR-5 ovarian was more than 100 µM in each case.
Turning to `Cc1ccc(N=C2SC(c3ccc(C)cc3)(c3ccc(C)cc3)c3ccccc32)cc1`, the TGI in the test with DU-145 prostate, in the test on NCI-H226 lung, with M14 melanoma, in the test on UACC-62 melanoma, in the test on OVCAR-8 ovarian and in the test with SF-539 CNS was more than 100 µM each time. In addition, the TGI in the test with RPMI-8226 leukemia, in the test with CAKI-1 renal, in the test with NCI-H522 lung and in the test on OVCAR-5 ovarian was more than 100 µM each time.
For the compound `Cc1ccc(OCC2OC(n3cnc4c(Cl)ncnc43)CC2Oc2ccc(C)cc2)cc1` (centres undefined), the GI50 was 1.96 µM and 13.3 µM in the test with DU-145 prostate; 2.75 µM and 7.3 µM in the test on M14 melanoma; 9.01 µM and 22.8 µM with UACC-62 melanoma; 3.03 µM with RPMI-8226 leukemia. The TGI with DU-145 prostate was 3.65 µM and 28.1 µM; in the test with NCI-H226 lung, 31.7 µM and 44.1 µM; in the test on M14 melanoma, 6.61 µM and 22.6 µM; with UACC-62 melanoma, 25.9 µM and > 59 µM; with OVCAR-8 ovarian, 24.6 µM and 24.2 µM; in the test with SF-539 CNS, 50.6 µM and 36.1 µM. Besides, the TGI in the test on RPMI-8226 leukemia was > 25 µM and 22.5 µM; in the test with CAKI-1 renal, 4.18 µM and 5.78 µM; in the test with NCI-H522 lung, 6.66 µM and 3.82 µM; with OVCAR-5 ovarian, 68.5 µM and > 79.7 µM.
